In patent publication US20260048047A1, “SMALL-MOLECULE ACTIVATORS OF MYCOBACTERIUM TUBERCULOSIS ADENYLYL CYCLASE” (priority 2022, published 2026):
pEC50, pIC50: −log10 of the molar value. In brackets after ≈: the same amount, converted by molar mass. Entries after “also recorded” stand apart in the source; their conditions may differ. Read-outs that look alike come from different tables or passages of the source.

Experiments:
M. tuberculosis = test: Extracellular activity against M. tuberculosis in cholesterol media (Alamar Blue reduction assay); type: cell-based, Mycobacterium tuberculosis
Mtb [1] = test: Chronic Mtb infection in C3HeB/FeJ mice; type: in vivo; conditions: infected and treated in the same manner
Mtb in macrophages = test: Inhibition of Mtb replication in macrophages (intramacrophage EC50); type: cell-based, Mycobacterium tuberculosis
mammalian AC enzymes = conditions: human cell lines, 10 μM
prpD'::GFP reporter = type: cell-based, Mycobacterium tuberculosis; conditions: V-59 10 μM
Mtb [2] = type: in vivo, BALB/c mice; conditions: for Reduction in lung CFUs: mouse, in vivo
[3] = Plasma exposure over the cholesterol-media EC50 after oral dosing in mice; type: in vivo
[4] = tested on: Mtb cholesterol degradation; test: Catabolic release of 14CO2 from radiolabelled lipid by Mtb; type: cell-based, Mycobacterium tuberculosis
Description: Because V-59 impairs growth of Mtb in cholesterol media, whether using V-59 to chemically activate Rv1625c inhibits the bacterium's ability to break down cholesterol was tested. When Mtb degrades the A-ring of [4-^14C]-cholesterol, [1-^14C]-pyruvate is released; subsequently, pyruvate dehydrogenase activity mediates the conversion of [1-^14C]-pyruvate into acetyl-CoA and ^14CO2. Therefore, to quantify cholesterol degradation in Mtb, ^14CO2 released following [4-^14C]-cholesterol breakdown by the bacteria was captured.

Rv1625c = biological target: T1, Rv1625c (Mycobacterium tuberculosis, UniProt P9WQ35); type: cell-based
T1 construct: endogenous in cells; host or cells: whole Mycobacterium tuberculosis (WT; CompFull = ΔRv1625c complemented with the entire rv1625c gene)
T1 sequence (P9WQ35 1-443): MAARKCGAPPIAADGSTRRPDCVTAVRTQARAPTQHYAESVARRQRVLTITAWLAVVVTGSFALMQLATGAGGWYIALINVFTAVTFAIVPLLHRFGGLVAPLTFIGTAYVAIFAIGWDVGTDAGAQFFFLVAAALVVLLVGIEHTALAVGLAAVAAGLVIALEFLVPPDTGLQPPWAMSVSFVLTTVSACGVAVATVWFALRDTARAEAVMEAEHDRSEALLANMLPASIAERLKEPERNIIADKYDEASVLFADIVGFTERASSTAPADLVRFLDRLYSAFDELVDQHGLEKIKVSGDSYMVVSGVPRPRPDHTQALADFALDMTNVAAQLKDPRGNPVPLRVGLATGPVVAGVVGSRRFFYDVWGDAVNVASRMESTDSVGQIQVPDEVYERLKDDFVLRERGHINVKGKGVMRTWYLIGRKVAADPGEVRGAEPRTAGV

Mtb [5] = test: Mtb growth inhibition in standard rich growth media (7H9 OADC) or acetate media; type: cell-based, Mycobacterium tuberculosis; conditions: media containing acetate
[6] = tested on: non-replicating M. tuberculosis; test: Hu Coats 100-day old culture model; conditions: for CFU reduction versus PB: added to PB; for Cidal activity compared to the NixTB combination: with Pretomanid and Bedaquiline
Extraction ratio, mouse = conditions: Table S2
Extraction ratio, human = conditions: Table S2
hERG = hERG (Homo sapiens, UniProt Q12809); test: in vitro; type: biochemical; conditions: Table S2
Sequence of hERG (Q12809 whole entry): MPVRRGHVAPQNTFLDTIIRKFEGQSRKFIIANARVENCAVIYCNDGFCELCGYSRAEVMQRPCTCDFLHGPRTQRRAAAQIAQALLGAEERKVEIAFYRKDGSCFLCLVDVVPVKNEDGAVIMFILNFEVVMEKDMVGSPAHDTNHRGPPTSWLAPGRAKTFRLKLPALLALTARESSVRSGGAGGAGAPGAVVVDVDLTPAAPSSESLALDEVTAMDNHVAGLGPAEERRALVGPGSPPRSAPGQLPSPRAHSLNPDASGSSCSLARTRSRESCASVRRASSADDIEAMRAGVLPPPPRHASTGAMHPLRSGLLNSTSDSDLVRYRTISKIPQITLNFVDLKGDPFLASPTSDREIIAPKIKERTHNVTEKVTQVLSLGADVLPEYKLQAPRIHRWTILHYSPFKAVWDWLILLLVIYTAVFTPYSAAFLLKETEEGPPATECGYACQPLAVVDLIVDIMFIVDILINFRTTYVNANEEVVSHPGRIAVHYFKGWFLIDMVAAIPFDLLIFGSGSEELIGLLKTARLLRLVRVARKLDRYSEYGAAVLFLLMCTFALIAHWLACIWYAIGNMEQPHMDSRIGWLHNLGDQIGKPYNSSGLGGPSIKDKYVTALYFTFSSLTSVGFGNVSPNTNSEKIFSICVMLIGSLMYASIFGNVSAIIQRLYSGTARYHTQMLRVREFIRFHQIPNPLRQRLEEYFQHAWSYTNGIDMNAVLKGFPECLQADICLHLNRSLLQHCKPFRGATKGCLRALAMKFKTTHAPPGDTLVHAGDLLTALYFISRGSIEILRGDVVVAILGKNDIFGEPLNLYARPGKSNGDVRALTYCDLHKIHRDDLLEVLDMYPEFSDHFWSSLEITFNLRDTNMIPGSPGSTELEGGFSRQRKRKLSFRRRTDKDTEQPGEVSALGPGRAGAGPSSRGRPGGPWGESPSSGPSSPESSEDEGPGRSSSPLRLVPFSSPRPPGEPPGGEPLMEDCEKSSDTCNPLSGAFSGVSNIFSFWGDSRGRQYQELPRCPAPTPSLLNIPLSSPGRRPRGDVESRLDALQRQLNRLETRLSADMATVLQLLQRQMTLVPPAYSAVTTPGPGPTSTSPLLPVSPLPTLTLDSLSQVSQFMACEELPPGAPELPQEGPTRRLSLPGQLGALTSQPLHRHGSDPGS

Solubility at pH 6.8 = conditions: pH 6.8, aqueous buffer
[7] = Mouse plasma protein binding
[8] = tested on: Mtb H37Rv (Mtb-lux) inside PMA-differentiated THP-1 cells; test: Intramacrophage activity in THP-1 cells; type: cell-based, Mycobacterium tuberculosis
Mtb H37Rv = test: MIC determination in Mtb H37Rv (MABA, 7H12-Cholesterol media); type: cell-based; conditions: Mycobacterium tuberculosis, two batches
Description: MIC Determination in Mtb H37Rv
The minimum inhibitory concentration (MIC) of the test compounds were determined using ten-point, two-fold serial dilutions in 7H12-Cholesterol media using Microdilution Alamar Blue Assay (MABA) as previously described (Cho et al., 2015; VanderVen et al., 2015). Briefly, Mycobacterial cells at the mid-logarithmic phase of growth were diluted (1:1,000). Twenty μl of this dilution was added to each well containing 2-fold serially diluted test compounds and incubated for 7 days at 37° C. Alamar Blue (Invitrogen) reagent (4 μL per well) was added along with 20% Tween 80 (2.5 μL per well, Sigma Aldrich) to evaluate bacterial cell viability. Plates were read 24 h after adding Alamar Blue at absorbance 570 nm with a reference wavelength of 600 nm.

Mtb [9] = test: Checkerboard combination assay with known anti-TB drugs (FIC index); type: cell-based, Mycobacterium tuberculosis; conditions: nine anti-TB drugs
Text: Combination Testing of mCLB073 with Known Anti-TB Drugs
To test for interactions between mCLB073 and known anti-tubercular drugs in combination in an in vitro growth assay, a checkerboard assay to test for interactions between mCLB073 and drugs with known anti-TB activity using Alamar Blue as a viability marker (Lechartier et al., 2012) was used. Drug combinations were categorized based on fractional inhibitory concentration (FIC) index of FIC≤0.5 as synergistic, 0.5<FIC≤1 as additive, 1<FIC≤4 as no interaction and FIC ≥4 as antagonism (Hall et al., 1983).
Performed were synergy studies between mCLB073 and nine anti-TB drugs: Moxifloxacin (MOXI), Isoniazid (INH), Rifampicin (RIF), Streptomycin (STR), Levofloxacin (LEV), Linezolid (LIN), Ethionamide (ETH), Pretomanid (PA-824), and Bedaquiline (BDQ). A checkerboard titration in a microtiter plate was used as previously described (Hsieh et al., 1993).

[10] = tested on: Mtb inside J774.1 macrophages; test: Intramacrophage activity in J774.1 cells; type: cell-based, Mycobacterium tuberculosis
Mtb H37Ra = conditions: read-out: IC50 against Mtb H37Ra in cholesterol media

SMILES: Cc1nonc1CC(=O)N1CCC2(CCC2n2nnc(-c3ccc(F)cc3)n2)CC1 (stereo not drawn) [Compound 258, 1-(1-(5-(4-fluorophenyl)-2H-tetrazol-2-yl)-7-azaspiro[3.5]nonan-7-yl)-2-(4-methyl-1,2,5-oxadiazol-3-yl)ethan-1-one]
- pEC50 (M. tuberculosis; Mycobacterium tuberculosis, 240 h, 7H12-Cholesterol media, 10 days, read-out: Cholesterol broth: alamar blue--EC50): < 4.60

SMILES: Cc1nonc1CC(=O)N1CCC(n2nnc(-c3ccc(F)cc3)n2)CC1 [Compound V-59, 1-(4-(5-(4-fluorophenyl)-2H-tetrazol-2-yl)piperidin-1-yl)-2-(4-methyl-1,2,5-oxadiazol-3-yl)ethan-1-one]
- Reduction in lung CFUs (Mtb [1]): ~0.5 log10
- pEC50 (Mtb in macrophages; Mycobacterium tuberculosis, Macrophage, read-out: EC50, inhibition of Mtb replication in macrophages): 6.52
- Activation of ACs in mammalian cells (mammalian AC enzymes): No evidence
- Decrease of prpD'::GFP signal in CompFull (prpD'::GFP reporter; CompFull strain): ~90%
- Decrease of prpD'::GFP signal in WT (prpD'::GFP reporter; WT): ~50%
- Reduction of extent of lung inflammation (Mtb [2]; BALB/c, 50 mg/kg oral once-daily, weeks 4-8): ~50%
- Reduction in lung CFUs (Mtb [2]; po, 50 mg/kg): ~0.4 log10
- Plasma exposure above the EC50 (cholesterol media) ([3]; oral dosing in mice at 20 mg/kg): approximately 24 hours
- pEC50 (M. tuberculosis; Mycobacterium tuberculosis, read-out: EC50, inhibition of Mtb growth in cholesterol media): 6.15
- Decrease of 14CO2 release from [4-14C]-cholesterol ([4]; WT Mtb): ~89%
- Effect on 14CO2 release from [U-14C]-palmitate ([4]; fatty acid breakdown): no measurable effect
- cAMP induction in WT Mtb (Rv1625c): ~70 fold
- cAMP induction in CompFull Mtb (Rv1625c; CompFull strain): ~140 fold
- Inhibition of Mtb growth in acetate media or standard rich growth media (Mtb [5]): not

SMILES: CC(=O)NC[C@H]1CN(c2ccc(N3CCOCC3)c(F)c2)C(=O)O1 [LIN, Linezolid, reference compound]
- CFU reduction versus PB ([6]; 50 μM): superior CFU reduction

SMILES: Cn1ncnc1CC(=O)N1[C@@H]2CC(c3nc(-c4ccc(Cl)c(Cl)c4)no3)C[C@H]1C2 (stereo partly drawn) [drawing 4]
- fraction unbound (Caseum binding): < 0.0001
- ER mouse/human: mouse (Extraction ratio, mouse): <0.3/<0.3
- ER mouse/human: human (Extraction ratio, human): <0.3/<0.3
- pIC50 (hERG): 4.93
- solubility (Solubility at pH 6.8): 94 µM (≈ 40.7 µg/mL)
- fraction unbound [7]: 0.022

SMILES: Cn1ncnc1CC(=O)N1CCC(c2nc(-c3ccc(Cl)c(Cl)c3)no2)CC1 [mCLB073, 1-(4-(3-(3,4-dichlorophenyl)-1,2,4-oxadiazol-5-yl)-1-piperidinyl)-2-(2-methyl-2H-1,2,4-triazol-3-yl)-1-ethanone]
- Sinf (maximum inhibition), THP-1 [8]: 76.8%
- pEC50 ([8]; Mycobacterium tuberculosis, H37RV, THP-1, 72 h, luminescence, day 3, read-out: EC50, growth of Mtb inside PMA-differentiated THP-1 cells): 7.40
- Efficacy when tested individually ([6]; 100-day-old culture, alone): no efficacy
- Activity in combination versus NixTB combination ([6]; Pretomanid 20.87 μM, Bedaquiline 2.25 μM, test drug 20, 8, 1 μM): comparable
- CFU reduction versus PB ([6]; 50 μM): superior CFU reduction
- Cidal activity compared to the NixTB combination ([6]; 50 μM): complete sterilization; also recorded: two log units better
- Cidal activity compared to the NixTB combination ([6]; all compounds at 20 μM): one-log improvement
- MIC90 (Mtb H37Rv): 0.28 µM (≈ 0.118 µg/mL)
- Antagonism with known anti-TB drugs (Mtb [9]): did not display any antagonism
- Decrease of extent of lung pathology (Mtb [2]; BALB/c, 30 mg/kg oral once-daily, weeks 4-8): ~45%
- Lung bacterial burden when added to sub-optimal rifampicin (Mtb [2]; BALB/c, 30 mg/kg plus sub-optimal dose of rifampicin): did not increase the bacterial burden
- Reduction in lung CFUs (Mtb [2]; 5 mg/kg): ~0.4 log10
- Reduction in lung CFUs (Mtb [2]; po, 30 mg/kg): ~0.4 log10
- Plasma exposure over the EC50 identified in cholesterol media ([3]; dosed orally in mice): at least 24 hours
- Sinf (maximum inhibition), J774.1 [10]: 42.1%
- pEC50 ([10]; Mycobacterium tuberculosis, J774.1, 72 h, luminescence, day 3, read-out: EC50, growth of Mtb inside J774.1 macrophages): 7.30
- pIC50 (Mtb H37Ra): 7.52

SMILES: Cn1ncnc1CC(=O)N1[C@@H]2CC(c3nc(-c4ccc(Cl)c(Cl)c4)no3)C[C@H]1C2 (stereo partly drawn) [mCLF025]
- pEC50 (Mtb in macrophages; Table S2, read-out: Macrophages EC50): < 4.52
- pEC50 (M. tuberculosis; Table S2, read-out: Cholesterol EC50): < 4.52
- Potency of trans isomer in words (M. tuberculosis; Table S2 assays): inactive
